Measured values published in patent US20040038920A1, “Chlamydial peptides and their mimics in demyelinating disease” (priority 2003, published 2004).

What was measured:
Lewis rats = assay: Induction of EAE in Lewis rats by immunization with peptide in CFA; type: in vivo, rat; conditions: for EAE Incidence (# affected animals/total # animals injected) / EAE severity score (in parentheses): Table IV, dose not given; for EAE Severity (mean group severity, max. = 3.0) / EAE Incidence: Lewis rats; for EAE severity score (in parentheses): max. = 3.0; for Encephalitogenic activity in LEW rats (in words): peptide in CFA, s.c.
Procedure: Peptides were administered subcutaneously to LEW rats at 5 μg or 50 μg doses in the standard manner. Eight- to twelve-week-old female Lewis rats (purchased from Charles River, Raleigh, N.C.) were immunized subcutaneously at the hind footpad with the appropriate synthetic peptide, emulsified in complete Freund's adjuvant (CFA, Difco, Detroit, Mich.). […] Animals were followed for 21 days post-immunization. Hematoxylin-eosin-stained and toluidine blue-stained spinal cord sections from representative rats were examined for inflammatory cell infiltration and demyelination without knowledge of the group of origin.

[1] = tested on: T cells from rats immunized with the chlamydial peptide; assay: T cell proliferation assay (3H-thymidine), Cpn0483-primed T cells; type: cell-based, rat; conditions: for Proliferation of peptide-primed T cells in response to irrelevant peptide: specificity control, priming peptide not specified; for Proliferative response of Cpn0483-primed T cells to peptide: 96 hr culture with irradiated thymocytes as APCs, FIG. 3
Procedure: (§1) To further investigate the immunopathology underlying the clinical observations, T cells were isolated from the spleens of rats immunized with Cpn0483 or MBP68-86, and recall responses were assessed using standard T cell proliferation assays.
(§2) Briefly, splenocytes were isolated from peptide-primed rats, adherent cells were removed by culture on plastic Petri dishes, and T cells were isolated on T cell columns (Biotec, Edmonton, Canada). The T cells were cultured for 96 hr with irradiated (2000rad) syngeneic thymocytes as antigen presenting cells (APCs), and peptide, in 96-well flat-bottom microtiter plates. The cultures were pulsed with ^3H-thymidine (0.5 μCi/well) 18 hr prior to harvesting cells, and 3H-thymidine incorporation was measured in a liquid scintillation counter (Wallac 1450 Microbeta Plus, Gaithersburg, Md.). Cultures were run in quadruplicate and each experiment was repeated at least twice. Dose-response studies were performed using various peptides at differing concentrations, and representative results are presented.

[2] = tested on: syngeneic recipients (LEW rats); assay: Transfer of EAE with peptide-activated spleen cells from Cpn0483-immunized rats; type: in vivo, rat; conditions: Cpn0483-primed spleen cells activated in vitro with the named peptide for 72 hr
Procedure: Both are characteristic pathological findings in the rat model of EAE (Zamvil et al., supra; Swanborg, 1995, supra) and are also observed in MS (Raine et al., 1999, supra). […] This feature is prominent in MS, but is not characteristic of acute EAE in LEW rats. When spleen cells were prepared from Cpn0483-immunized LEW rats with EAE and activated in vitro with the same peptide for 72 hr, they transferred clinical disease to 6 of 9 syngeneic recipients. Six of 9 recipients of Cpn-primed spleen cells activated with MBP68-86 also developed clinical EAE. Mononuclear infiltration was present in the spinal cords of recipients with clinical disease, as expected.

[3] = tested on: T cells derived from rats immunized with rat MBP68-86; assay: T cell proliferation assay (3H-thymidine), rat MBP68-86-primed T cells; type: cell-based; conditions: 96 hr culture with irradiated thymocytes as APCs, FIG. 4
Procedure: as §1, §2

[4] = tested on: short-term T cell line from Cpn0483 peptide-immunized rats; assay: Cytokine secretion by short-term T cell line (ELISA); type: cell-based, rat; conditions: activated for 72 hr with the chlamydial peptide
Text: It has been well established that EAE in rodents is mediated by IFN-γ-producing Th1 inflammatory cells ((Zamvil et al., supra; Swanborg, supra; R. B. Smeltz et al., J. Immunol. 162, 829 (1999)).

[5] = 5 μg peptide s.c. in CFA, affected/total
[6] = 50 μg peptide s.c. in CFA, Table 2
[7] = 50 μg peptide s.c. in CFA, affected/total, Table 2
[8] = groups given either dose (5 μg or 50 μg)

Row | Substance | EAE Incidence (# affected animals/total # animals injected) (Lewis rats) | EAE Incidence (Lewis rats; Incidence at 50 μg, Table 3) | EAE severity score (in parentheses) (Lewis rats) | Encephalitogenic activity in LEW rats (in words) (Lewis rats) | EAE Severity (mean group severity, max. = 3.0) (Lewis rats; [6]) | EAE Incidence (Lewis rats; [7]) | further results
1 | HYGCLLPRNPRTED (listed as Chlamydia pneumoniae) [N4/C2 truncated] | 0/5 | – | – | – | – | – | –
2 | MBP11-30: irrelevant nonencephalitogenic peptide (SAEKASKDGEIHRGEAGKKR; UniProt P04370 11-30, looked up, fragment) | – | – | – | – | – | – | Proliferation of peptide-primed T cells in response to irrelevant peptide [1]: lack of proliferation
3 | MBP31-50: irrelevant nonencephalitogenic peptide (SVGKLSQTASEDSDVFGEAD; UniProt P04370 31-50, looked up, fragment) | – | – | – | – | – | – | Proliferation of peptide-primed T cells in response to irrelevant peptide [1]: lack of proliferation
4 | NHYGCLLPRNPRTED (listed as Chlamydia pneumoniae) [N3/C2 truncated] | 0/5 | – | – | – | – | – | –
5 | PNHYGCLLPRNPRTEDQN (listed as Chlamydia pneumoniae) [N2—truncated] | 0/5 | – | – | – | – | – | –
6 | RFPNHYGCLLPRNPR (listed as Chlamydia pneumoniae) [C5—truncated] | 0/5 | – | – | – | – | – | –
7 | RFPNHYGCLLPRNPRTEAQN (listed as Chlamydia pneumoniae) [Cpn D>A] | 9/10 | 9/10 | 2.7 | elicited severe EAE | – | – | EAE Severity (mean group severity, max. = 3.0) (Lewis rats; 50 μg, Table 3): 2.7
8 | RFPNHYGCLLPRNPRTEDQN (listed as Chlamydia pneumoniae) [Cpn0483, 20-mer peptide near the C-terminus of C. pneumoniae protein Cpn0483] | 5/5 | 5/5 | 3.0 | encephalitogenic | 2.3 | 14/15 | Recipients developing clinical EAE after cell transfer [2]: 6 of 9; EAE Severity (mean group severity, max. = 3.0) (Lewis rats; 5 μg peptide s.c. in CFA): 1.8; EAE Incidence (Lewis rats; [5]): 3/5; EAE Severity (mean group severity, max. = 3.0) (Lewis rats; 50 μg, Table 3): 3.0; Demyelination in spinal cord sections (Lewis rats; Luxol fast blue-stained sections): Significant demyelination was not observed; Initial clinical signs of EAE, time post-immunization (Lewis rats; [8]): approximately 12 days; Persistence of clinical signs of EAE (Lewis rats; [8]): 3 to 6 days; Encephalitogenic activity in LEW rats (in words) (Lewis rats; listed as chlamydial peptide): as effective as guinea pig or rat MBP68-86 peptide in causing paralysis; Spinal cord inflammatory cell infiltration (histology) (Lewis rats; spinal cords of immunized rats): Extensive perivascular cuffing and parenchymal mononuclear cell infiltration; Proliferative response of rat MBP68-86-primed T cells to peptide [3]: cross-reacted only minimally; Proliferative response of rat MBP68-86-primed T cells to peptide ([3]; listed as chlamydial peptide): cross-react; Proliferative response of Cpn0483-primed T cells to peptide [1]: respond to priming peptide; Proliferative response of Cpn0483-primed T cells to peptide ([1]; listed as chlamydial peptide): responded vigorously; IFN-γ secreted [4]: 7,000 pg/ml; IL-4 production [4]: did not produce detectable IL-4
9 | RFPNHYGSLLPRNPRTEDQN (listed as Chlamydia pneumoniae) [Cpn0483 C > S] | 8/10 | – | 2.4 | lack of effect | 2.2 | 4/5 | EAE Severity (mean group severity, max. = 3.0) (Lewis rats; 5 μg peptide s.c. in CFA): 2.4; EAE Incidence (Lewis rats; [5]): 4/5
10 | YGCLLPRNPRTEDQN (listed as Chlamydia pneumoniae) [N5—truncated] | 0/5 | – | – | – | – | – | –
11 | YGSLPQKSORTQAENPV (YGSLPQKSQRSQAENPV; listed as Rattus sp.) [MBP D>A, reference compound] | – | 0/10 | – | abolished encephalitogenic activity | – | – | –
12 | YGSLPQKSQRSQDENPV (Guinea pig) [gp68-86, guinea pig myelin basic protein peptide 68-86, reference compound] | – | – | – | induced clinical disease with comparable severity and time course | 3.0 | 5/5 | –
13 | YGSLPQKSQRTQDENPV (listed as Rattus sp.) [rat68-86, rat myelin basic protein peptide 68-86, reference compound] | 5/5 | 5/5 | 3.0 | induced clinical disease with comparable severity and time course | 2.7 | 10/10 | Recipients developing clinical EAE after cell transfer [2]: Six of 9; EAE Severity (mean group severity, max. = 3.0) (Lewis rats; 50 μg, Table 3): 3.0; Proliferative response of rat MBP68-86-primed T cells to peptide ([3]; listed as rat MBP68-86): proliferated vigorously; Proliferative response of rat MBP68-86-primed T cells to peptide ([3]; listed as ratMBP68-86): respond to priming peptide; Proliferative response of Cpn0483-primed T cells to peptide ([1]; listed as rat MBP68-86): responded significantly; Proliferative response of Cpn0483-primed T cells to peptide ([1]; listed as ratMBP68-86): cross-react
